Reference: patent US9604974B2, “Compounds as modulator of JAK-STAT pathway, methods and applications thereof” (UNIVERSITY OF MYSORE, priority 2015, dated 2017)
Entries after “also recorded” stand apart in the source; their conditions may differ.

Legend:
[1] = system: AGS (gastric cancer cell line); assay: MTT anti-proliferative assay, AGS; type: cell-based; conditions: Homo sapiens
Procedure: (§1) The anti-proliferative activity of Formula I compounds are studied on HepG2 cells using MTT assay. Briefly, the cells (2.5×10^4/ml) are incubated in triplicate in a 96-well plate in the presence or absence of different concentrations of compounds in a final volume of 0.2 ml up to 72 hours at 37° C. Thereafter, 20 μl MTT solution (5 mg/ml in PBS) is added to each well. After 2 hours of incubation at 37° C., 0.1 ml lysis buffer (20% SDS, 50% dimethyl-formamide) is added; incubation is continued overnight at 37° C.; and the optical density (OD) at 570 nm is measured by Tecan plate reader.
(§2) Additionally, Compound 1 is tested on a panel of six cell lines including Hep3B, PLC/PRF5, AGS (gastric cancer cell line), DU145 (prostrate cancer cell line), MDA MB231 (breast cancer cell line) and CAL27 (head and neck cancer cell line) cells.

phospho-STAT3 (Y705) = assay: Western blot of constitutive phospho-STAT3 (Y705) in HepG2; type: cell-based, human
Procedure: FIG. 2 depicts the suppression of phospho-STAT3 by compound 1 (CIMO) in a dose dependent manner [A]. HepG2 cells (5×10^5/mL) are treated with the indicated concentrations of CIMO for 6 hours, after which whole-cell extracts are prepared and resolved on SDS-PAGE gel, electrotransferred onto nitrocellulose membrane, and probed for phospho-STAT3. The same blot is stripped and reprobed with STAT3 antibody to verify equal protein loading. […] HepG2 cells (5×10^5/mL) are treated with the indicated concentrations of AG490 for about 6 hours, after which Western Blotting is done as described for [A]. [C] depicts the suppression of phospho-STAT3 levels by Compound 1 (CIMO) in a time-dependent manner. HepG2 cells (5×10^5/mL) are treated with 10 μMol/L CIMO for the indicated times, after which Western blotting is done as described for [A]. [D] depicts that compound 1 (CIMO) has no effect on phospho-STAT3 (Ser-727) and STAT3 protein expression. HepG2 cells (5×10^5/mL) are treated with 10 μMol/L CIMO for the indicated times, after which Western Blotting is done as described for [A] and membrane is probed using antibodies against phospho-STAT3 (Ser-727) and STAT3. […] HepG2 cells (1×10^5/mL) are incubated with or without 10 μMol/L CIMO for about 6 hours and then analyzed for the intracellular distribution of STAT3 by immunocytochemistry. The same slides are counterstained for nuclei with Hoechst (50 ng/mL) for about 5 minutes and analyzed under an fluorescencemicroscope. […] HepG2 cells (5×10^5/mL) are treated with 10 μMol/L CIMO, after which whole-cell extracts are prepared, resolved in SDS-PAGE, electrotransferred onto nitrocellulose membrane, and probed with phospho-Src, phospho-JAK1 and phospho-JAK2 antibodies. The same blots are stripped and reprobed with Src, JAK1 and JAK2 antibodies to verify equal protein loading. [G] depicts the suppression of STAT3 DNA binding ability by Compound 1 (CIMO) in HepG2 cells. HepG2 cells are treated with 10 μMol/L CIMO for the indicated time, nuclear extracts are prepared, and 5 μg of the nuclear extract protein is used for ELISA-based DNA-binding assay.
CIMO is tested towards the inhibition of constitutive activation of STAT3 in HepG2 cells by Western Blotting via antibodies recognising phospho-STAT3 (Y705). For detection of phospho-proteins, CIMO treated whole-cell extracts are lysed in lysis buffer [20 mM Tris (pH 7.4), 250 mM NaCl, 2 mM Ethylenediaminetetraacetic acid (pH 8.0), 0.1% Triton-X-100, 0.01 mg/ml aprotinin, 0.005 mg/ml leupeptin, 0.4 mM phenylmethanesulfonylfluoride, and 4 mM NaVO4). Lysates are then spun at 14,000 rpm for about 10 minutes to remove insoluble material and resolved on SDS gel. After electrophoresis, the proteins are electrotransferred to a nitrocellulose membrane, blocked with 5% non-fat milk, and probed with various antibodies (1:1000) overnight at about 4° C. The blot is washed, exposed to HRP-conjugated secondary antibodies for about 1 hour, and finally examined by chemiluminescence (ECL; GE Healthcare, Little Chalfont, Buckinghamshire, UK).

[2] = system: CAL27 (head and neck cancer cell line); assay: MTT anti-proliferative assay, CAL27; type: cell-based; conditions: Homo sapiens, CAL-27
Procedure: as §1, §2

c-Src = assay: Western blot of constitutive phospho-Src in HepG2; type: cell-based, human; conditions: HepG2, 10 μMol/L CIMO

IC50 [1]: 36.9 µM | IC50 [2]: 27.1 µM
Compound: COc1ccc(C2CNC(c3cn(Cc4ccc(-c5ccccc5C#N)cc4)c4ccccc34)OC23CCCCC3)cc1 (stereo not shown) [Compound 1]
time of maximum inhibition of phospho-STAT3 (phospho-STAT3 (Y705); HepG2): 6 h | phospho-STAT3 levels versus DMSO control (phospho-STAT3 (Y705); HepG2, 4 μM CIMO): decreased phospho-STAT3 levels | protein levels of total STAT3 versus DMSO control (phospho-STAT3 (Y705); HepG2, 4 μM CIMO): not significantly altered | concentration of maximum inhibition of phospho-STAT3 (phospho-STAT3 (Y705); HepG2, 6 hours): 20 µM | concentration for comparable phospho-STAT3 effect versus AG490 (phospho-STAT3 (Y705); HepG2, CIMO compared to AG490): ten-fold lower concentration | levels of phospho-STAT3 (Y705) (phospho-STAT3 (Y705); HepG2, Western blot, dose and time course, listed as CIMO): substantially downregulated in a dose- and time-dependent manner; also recorded: completely inhibits | STAT3 protein expression (phospho-STAT3 (Y705); HepG2, same blots reprobed): remains unchanged | phosphorylation of c-Src kinases (c-Src): significant inhibition
